According to patent US12391664B2, “GluN2C/D subunit selective antagonists of the N-methyl-D-aspartate receptor” (Emory University, priority 2018, dated 2025):

Legend:
[1] = target: T1, recombinant rat GluN1/GluN2B (Rattus norvegicus, UniProt Q00960); experiment: Two-electrode voltage-clamp recordings in Xenopus laevis oocytes, GluN2B; format: cell-based; details: oocytes, 100 μM glutamate and 30 μM glycine
T1 construct: expressed in transfected cells; host or cells: Xenopus laevis oocytes injected with cRNA (GluN1:GluN2 ratio 1:2)
T1 sequence (Q00960 27-1482, other chains not shown): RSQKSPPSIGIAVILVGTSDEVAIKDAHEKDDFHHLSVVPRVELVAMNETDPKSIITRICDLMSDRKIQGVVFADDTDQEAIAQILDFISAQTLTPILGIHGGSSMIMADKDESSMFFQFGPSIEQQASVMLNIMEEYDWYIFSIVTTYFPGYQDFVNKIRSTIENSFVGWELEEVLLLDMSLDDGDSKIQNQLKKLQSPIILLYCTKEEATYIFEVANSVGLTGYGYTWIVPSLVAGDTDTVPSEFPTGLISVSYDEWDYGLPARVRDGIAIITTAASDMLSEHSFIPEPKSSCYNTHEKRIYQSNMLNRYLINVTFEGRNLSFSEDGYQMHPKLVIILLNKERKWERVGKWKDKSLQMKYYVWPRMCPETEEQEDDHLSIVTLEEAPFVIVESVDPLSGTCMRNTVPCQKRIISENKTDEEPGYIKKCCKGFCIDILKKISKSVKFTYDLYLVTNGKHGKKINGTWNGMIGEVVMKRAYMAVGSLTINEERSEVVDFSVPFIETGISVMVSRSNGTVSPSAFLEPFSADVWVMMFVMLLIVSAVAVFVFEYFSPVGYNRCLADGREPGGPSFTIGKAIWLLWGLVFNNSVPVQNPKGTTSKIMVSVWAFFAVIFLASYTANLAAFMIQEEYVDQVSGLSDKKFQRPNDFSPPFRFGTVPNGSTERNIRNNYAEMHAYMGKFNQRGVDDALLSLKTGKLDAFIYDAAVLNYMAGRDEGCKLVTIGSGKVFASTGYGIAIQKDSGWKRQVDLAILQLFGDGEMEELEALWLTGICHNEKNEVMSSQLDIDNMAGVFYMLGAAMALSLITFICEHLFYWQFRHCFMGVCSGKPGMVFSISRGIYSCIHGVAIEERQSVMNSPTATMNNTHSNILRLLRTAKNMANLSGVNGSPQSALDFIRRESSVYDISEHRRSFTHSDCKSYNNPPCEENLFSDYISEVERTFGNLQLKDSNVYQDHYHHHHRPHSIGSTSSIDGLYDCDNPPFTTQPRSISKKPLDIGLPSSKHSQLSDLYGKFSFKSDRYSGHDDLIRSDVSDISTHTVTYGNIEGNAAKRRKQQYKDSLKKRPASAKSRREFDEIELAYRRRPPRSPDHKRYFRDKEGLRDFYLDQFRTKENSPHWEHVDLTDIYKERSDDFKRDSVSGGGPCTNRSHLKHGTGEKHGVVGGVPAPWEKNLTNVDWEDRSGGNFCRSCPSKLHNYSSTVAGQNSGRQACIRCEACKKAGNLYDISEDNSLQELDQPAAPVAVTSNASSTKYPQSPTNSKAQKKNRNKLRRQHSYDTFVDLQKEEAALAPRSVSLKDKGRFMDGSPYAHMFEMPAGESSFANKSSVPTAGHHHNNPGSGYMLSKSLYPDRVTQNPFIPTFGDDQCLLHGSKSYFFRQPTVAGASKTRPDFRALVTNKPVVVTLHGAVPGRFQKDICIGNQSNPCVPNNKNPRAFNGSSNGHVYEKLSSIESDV
Method in brief: (§1)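 Oocytes injected with rat GluN1/GluN2 cRNA (1:2), held 2–5 days at 15–17 °C, clamped at −40 mV in Ba2+-containing recording solution, pH 7.4, 23 °C. Compounds applied (up to 100 μM) with 100 μM glutamate plus 30 μM glycine. IC50 and Hill slope from concentration-response fits of averaged current inhibition.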

[2] = target: T2, recombinant rat GluN1/GluN2A (Rattus norvegicus, UniProt Q00959); experiment: Two-electrode voltage-clamp recordings in Xenopus laevis oocytes, GluN2A; format: cell-based; details: oocytes, 100 μM glutamate and 30 μM glycine
T2 construct: expressed in transfected cells; host or cells: Xenopus laevis oocytes injected with cRNA (GluN1:GluN2 ratio 1:2)
T2 sequence (Q00959 23-1464, other chains not shown): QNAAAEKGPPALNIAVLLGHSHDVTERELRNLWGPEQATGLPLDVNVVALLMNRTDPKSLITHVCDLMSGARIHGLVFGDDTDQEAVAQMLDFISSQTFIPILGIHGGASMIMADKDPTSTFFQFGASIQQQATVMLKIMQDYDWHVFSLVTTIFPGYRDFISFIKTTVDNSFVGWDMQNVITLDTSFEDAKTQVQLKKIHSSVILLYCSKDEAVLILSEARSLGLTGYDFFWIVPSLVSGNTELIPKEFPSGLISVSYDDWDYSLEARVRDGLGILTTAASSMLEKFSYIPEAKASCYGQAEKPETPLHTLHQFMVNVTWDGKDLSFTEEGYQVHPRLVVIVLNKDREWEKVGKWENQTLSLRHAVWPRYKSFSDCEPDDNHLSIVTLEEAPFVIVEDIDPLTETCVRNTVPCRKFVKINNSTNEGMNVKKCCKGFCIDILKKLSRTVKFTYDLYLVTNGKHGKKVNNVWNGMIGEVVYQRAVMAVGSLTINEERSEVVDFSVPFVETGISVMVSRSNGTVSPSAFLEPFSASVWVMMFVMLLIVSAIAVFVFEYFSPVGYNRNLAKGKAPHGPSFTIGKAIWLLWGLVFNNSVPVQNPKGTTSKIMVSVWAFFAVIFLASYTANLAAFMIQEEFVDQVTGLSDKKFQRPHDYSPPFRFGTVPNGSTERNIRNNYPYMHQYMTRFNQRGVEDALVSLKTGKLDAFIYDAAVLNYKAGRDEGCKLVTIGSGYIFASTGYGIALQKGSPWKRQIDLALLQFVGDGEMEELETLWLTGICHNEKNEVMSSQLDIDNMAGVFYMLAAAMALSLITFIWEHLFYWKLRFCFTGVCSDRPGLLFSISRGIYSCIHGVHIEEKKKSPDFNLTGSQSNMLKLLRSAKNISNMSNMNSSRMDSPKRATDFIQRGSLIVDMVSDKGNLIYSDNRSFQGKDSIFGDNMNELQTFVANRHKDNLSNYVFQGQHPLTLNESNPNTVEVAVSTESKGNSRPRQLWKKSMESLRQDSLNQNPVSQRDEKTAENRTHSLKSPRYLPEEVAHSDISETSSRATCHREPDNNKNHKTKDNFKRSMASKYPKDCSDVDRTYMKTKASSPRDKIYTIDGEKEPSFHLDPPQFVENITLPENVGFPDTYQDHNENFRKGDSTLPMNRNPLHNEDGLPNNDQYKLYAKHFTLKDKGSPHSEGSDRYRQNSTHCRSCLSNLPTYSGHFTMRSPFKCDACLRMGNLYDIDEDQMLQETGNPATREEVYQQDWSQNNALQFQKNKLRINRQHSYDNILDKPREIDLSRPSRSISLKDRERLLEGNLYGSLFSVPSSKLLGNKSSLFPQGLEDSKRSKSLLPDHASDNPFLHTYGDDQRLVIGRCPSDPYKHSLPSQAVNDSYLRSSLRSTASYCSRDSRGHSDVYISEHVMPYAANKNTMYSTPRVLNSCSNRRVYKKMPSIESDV
Method in brief: as §1

[3] = target: T3, recombinant rat GluN1/GluN2C (Rattus norvegicus, UniProt Q00961); experiment: Two-electrode voltage-clamp recordings in Xenopus laevis oocytes, GluN2C; format: cell-based; details: oocytes, 100 μM glutamate and 30 μM glycine
T3 construct: expressed in transfected cells; host or cells: Xenopus laevis oocytes injected with cRNA (GluN1:GluN2 ratio 1:2)
Method in brief: as §1

[4] = target: T4, recombinant rat GluN1/GluN2D (Rattus norvegicus, UniProt Q62645); experiment: Two-electrode voltage-clamp recordings in Xenopus laevis oocytes, GluN2D; format: cell-based; details: oocytes, 100 μM glutamate and 30 μM glycine
T4 construct: expressed in transfected cells; host or cells: Xenopus laevis oocytes injected with cRNA (GluN1:GluN2 ratio 1:2)
T4 sequence (Q62645 28-1323, other chains not shown): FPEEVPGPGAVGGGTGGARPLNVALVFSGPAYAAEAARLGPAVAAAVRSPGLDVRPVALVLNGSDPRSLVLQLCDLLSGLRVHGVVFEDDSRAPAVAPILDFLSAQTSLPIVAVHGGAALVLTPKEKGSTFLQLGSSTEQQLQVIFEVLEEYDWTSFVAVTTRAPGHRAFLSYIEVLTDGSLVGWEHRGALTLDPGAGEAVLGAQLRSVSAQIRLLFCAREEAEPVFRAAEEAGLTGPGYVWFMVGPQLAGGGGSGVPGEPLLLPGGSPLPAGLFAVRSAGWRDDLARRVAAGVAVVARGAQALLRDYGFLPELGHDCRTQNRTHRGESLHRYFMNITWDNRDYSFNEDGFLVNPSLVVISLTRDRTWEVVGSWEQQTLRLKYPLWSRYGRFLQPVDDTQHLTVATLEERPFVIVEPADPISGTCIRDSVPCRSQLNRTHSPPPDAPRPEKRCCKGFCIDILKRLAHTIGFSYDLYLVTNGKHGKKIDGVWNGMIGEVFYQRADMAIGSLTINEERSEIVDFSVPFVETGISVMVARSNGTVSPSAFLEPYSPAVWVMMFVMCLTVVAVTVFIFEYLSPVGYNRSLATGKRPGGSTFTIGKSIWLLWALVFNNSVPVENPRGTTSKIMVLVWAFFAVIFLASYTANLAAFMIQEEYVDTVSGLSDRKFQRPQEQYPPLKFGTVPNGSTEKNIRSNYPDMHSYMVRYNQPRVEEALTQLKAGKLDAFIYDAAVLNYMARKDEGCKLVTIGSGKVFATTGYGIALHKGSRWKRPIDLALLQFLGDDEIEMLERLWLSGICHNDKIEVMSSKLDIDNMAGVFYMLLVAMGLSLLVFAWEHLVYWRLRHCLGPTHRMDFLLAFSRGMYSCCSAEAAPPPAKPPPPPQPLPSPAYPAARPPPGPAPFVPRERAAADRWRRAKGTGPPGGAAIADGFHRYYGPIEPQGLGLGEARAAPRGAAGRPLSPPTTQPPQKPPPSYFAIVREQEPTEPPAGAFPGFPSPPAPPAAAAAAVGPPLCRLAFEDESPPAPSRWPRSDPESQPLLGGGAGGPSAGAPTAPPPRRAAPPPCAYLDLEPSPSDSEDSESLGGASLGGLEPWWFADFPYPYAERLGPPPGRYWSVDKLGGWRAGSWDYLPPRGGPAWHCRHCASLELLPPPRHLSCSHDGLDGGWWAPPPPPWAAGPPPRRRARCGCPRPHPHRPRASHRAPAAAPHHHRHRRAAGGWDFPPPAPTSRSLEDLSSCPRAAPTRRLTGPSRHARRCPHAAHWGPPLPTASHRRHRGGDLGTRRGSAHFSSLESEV
Method in brief: as §1

[5] = test system: recombinant GluN2A-D subunits; experiment: Two-electrode voltage-clamp recordings, statements on all receptors; format: cell-based, rat
Description: All target compounds were evaluated for activity by the Traynelis laboratory at Emory University using two-electrode voltage-clamp recordings performed in Xenopus laevis oocytes expressing recombinant GluN2A-D subunits (Table 1). […] Two ester compounds 997-65 and 997-66 also performed no inhibition at GluN2A to GluN2D receptors. […] Consequently, for the compounds that Acker et al. already published, it was necessary to increase the concentration to 100 μM when collecting data for a concentration effect curve. […] Therefore, under this condition, we can only conclude that compound 997-67 remained potent at GluN2C/D-containing receptors, but its selectivity over GluN2A- and GluN2B-containing receptors could not be compared to 997-57. […] Finally, replacing the carboxylic acid to the bio-isostere amide yielded compounds 997-96 and 997-115, which dropped the potency 2- to 4-fold in comparison to their corresponding acids 997-74 and 997-114.
Two-electrode voltage-clamp recordings were performed in Xenopus laevis oocytes that were injected with mRNA to express recombinant rat GluN1/GluN2A, GluN1/GluN2B, GluN1/GluN2C, and GluN1/GluN2D. The recordings using unfertilized oocytes from Xenopus laevis were permitted by Emory University Institutional Animal Care and Use Committee (IACUC). An automatic injector (Nanoject II, Drummond Scientific) was used for cRNA injection using the pipettes filled with mineral oil. The cRNA that transcribed in vitro via the mMessage Machine kit (Ambion) was diluted with nuclease-free water, and then injected at GluN1/GluN2 with a ratio of 1:2. The oocytes were stored in Barth's solution that contained 88 mM NaCl, 5.0 mM Tris-HCl, 2.4 mM NaHCO3, 1.0 mM KCl, 0.84 mM MgSO4, 0.41 mM CaCl2, 0.33 mM Ca(NO3)2, 0.1 mg/ml gentamycin sulfate, 1.0 U/ml penicillin, and 1 μg/ml streptomycin at a pH of 7.4 and temperatures of 15-17° C. for two to five days before the two-electrode voltage-clamp recordings. When recording, the oocytes were placed in a perfusion chamber and continually washed with the recording solution comprised of 90 mM NaCl, 1.0 mM KCl, 0.50 mM BaCl2, 0.005 mM EDTA, and 10 mM HEPES at a pH of 7.4 and a temperature of 23° C. Glass electrodes with a tip resistance of 0.5 to 2.5 MΩ were obtained from thin-walled glass capillary tubes. Voltage electrodes and current electrodes were filled with 0.3 M and 3.0 M KCl, respectively. The recordings were executed with the oocytes membrane potential holding at −40 m V by an OC-725 amplifier (Warner Instrument Co). All compounds were dissolved in dimethyl sulfoxide (DMSO) as 20 mM stock solutions and future diluted to reach the desired concentration (0.05-0.5% (vol/vol) DMSO) in recording solution comprised of 30 μM glycine and 100 μM glutamate. Each compound was recorded 3-7 times in the least 4 oocytes from at least 2 different Xenopus laevis.
To evaluate the inhibition of compounds, the concentration-response curve was fitted with the average two-electrode voltage-clamp recording results with the equation
[formula] • where IC50 is the concentration of compounds that inhibit half maximal of the current response and N is the Hill slope.

Structure (SMILES) | GluN2B IC50 [1] | GluN2A IC50 [2] | GluN2C IC50 [3] | GluN2D IC50 [4] | activity at all receptors (GluN2A to GluN2D), in words [5]
O=C(O)CCC(=O)N1N=C(c2c(-c3ccc(Cl)cc3)c3ccccc3[nH]c2=O)CC1c1ccncc1 (stereo not shown) [997-79, 4-(3-(4-(4-chlorophenyl)-2-oxo-1,2-dihydroquinolin-3-yl)-5-(pyridin-4-yl)-4,5-dihydro-1H-pyrazol-1-yl)-4-oxobutanoic acid] | NE (NE indicates less than 50% inhibition at 30 μM.) | NE (NE indicates less than 50% inhibition at 30 μM.) | NE (NE indicates less than 50% inhibition at 30 μM.) | NE (NE indicates less than 50% inhibition at 30 μM.) | inactive
O=C(O)CCC(=O)N1N=C(c2c(-c3ccc(Cl)cc3)c3ccccc3[nH]c2=O)CC1c1cnccn1 (stereo not shown) [997-80, 4-(3-(4-(4-chlorophenyl)-2-oxo-1,2-dihydroquinolin-3-yl)-5-(pyrazin-2-yl)-4,5-dihydro-1H-pyrazol-1-yl)-4-oxobutanoic acid] | NE (NE indicates less than 50% inhibition at 30 μM.) | NE (NE indicates less than 50% inhibition at 30 μM.) | NE (NE indicates less than 50% inhibition at 30 μM.) | NE (NE indicates less than 50% inhibition at 30 μM.) | inactive
CCOC(=O)C(F)(F)CC(=O)N1N=C(c2c(-c3ccc(Cl)cc3)c3ccccc3[nH]c2=O)CC1c1ccc(Cl)cc1 (stereo not shown) [997-66, Ethyl 4-{5-(4-chlorophenyl)-3-[4-(4-chlorophenyl)-2-oxo-1,2-dihydroquinolin-3-yl]-4,5-dihydro-1H-pyrazol-1-yl}-2,2-difluoro-4-oxobutanoate] | NE (NE indicates less than 50% inhibition at 30 μM.) | NE (NE indicates less than 50% inhibition at 30 μM.) | NE (NE indicates less than 50% inhibition at 30 μM.) | NE (NE indicates less than 50% inhibition at 30 μM.) | no inhibition
O=C(O)CC(F)(F)C(=O)N1N=C(c2ccccc2-c2cccc(F)c2)CC1c1ccc(Cl)cc1 (stereo not shown) [997-100, 4-(5-(4-chlorophenyl)-3-(3′-fluoro-[1,1′-biphenyl]-2-yl)-4,5-dihydro-1H-pyrazol-1-yl)-3,3-difluoro-4-oxobutanoic acid] | NE (NE indicates less than 50% inhibition at 30 μM.) | NE (NE indicates less than 50% inhibition at 30 μM.) | NE (NE indicates less than 50% inhibition at 30 μM.) | NE (NE indicates less than 50% inhibition at 30 μM.) | lost the activity
O=c1[nH]c2ccccc2c(-c2ccc(Cl)cc2)c1C1=NNC(c2ccc(Cl)cc2)C1 (stereo not shown) [997-70, 4-(4-chlorophenyl)-3-[5-(4-chlorophenyl)-4,5-dihydro-1H-pyrazol-3-yl]quinolin-2(1H)-one] | NE (NE indicates less than 50% inhibition at 30 μM.) | NE (NE indicates less than 50% inhibition at 30 μM.) | NE (NE indicates less than 50% inhibition at 30 μM.) | NE (NE indicates less than 50% inhibition at 30 μM.) | inactive
CCOC(=O)C(F)(F)CC(=O)N1N=C(c2c(-c3cccc(F)c3)c3ccccc3[nH]c2=O)CC1c1ccc(Cl)cc1 (stereo not shown) [997-65, Ethyl 4-{5-(4-chlorophenyl)-3-[4-(3-fluorophenyl)-2-oxo-1,2-dihydroquinolin-3-yl]-4,5-dihydro-1H-pyrazol-1-yl}-2,2-difluoro-4-oxobutanoate] | NE (NE indicates less than 50% inhibition at 30 μM.) | NE (NE indicates less than 50% inhibition at 30 μM.) | NE (NE indicates less than 50% inhibition at 30 μM.) | NE (NE indicates less than 50% inhibition at 30 μM.) | no inhibition
O=C(O)CCC(=O)N1N=C(c2c(-c3ccc(Cl)cc3)c3ccccc3[nH]c2=O)CC1c1ccncc1Cl (stereo not shown) [997-88, 4-(3-(4-(4-chlorophenyl)-2-oxo-1,2-dihydroquinolin-3-yl)-5-(3-chloropyridin-4-yl)-4,5-dihydro-1H-pyrazol-1-yl)-4-oxobutanoic acid] | NE (NE indicates less than 50% inhibition at 30 μM.) | NE (NE indicates less than 50% inhibition at 30 μM.) | NE (NE indicates less than 50% inhibition at 30 μM.) | NE (NE indicates less than 50% inhibition at 30 μM.) | inactive
O=C(O)CC(F)(F)C(=O)N1N=C(c2ccccc2-c2ccc(Cl)cc2)CC1c1cccc2c1OCO2 (stereo not shown) [997-119, 4-(5-(benzo[d][1,3]dioxol-4-yl)-3-(4′-chloro-[1,1′-biphenyl]-2-yl)-4,5-dihydro-1H-pyrazol-1-yl)-3,3-difluoro-4-oxobutanoic acid] | NE (NE indicates less than 50% inhibition at 30 μM.) | NE (NE indicates less than 50% inhibition at 30 μM.) | NE (NE indicates less than 50% inhibition at 30 μM.) | NE (NE indicates less than 50% inhibition at 30 μM.) | inactive
O=C(/C=C/c1ccc(Cl)cc1)c1c(-c2cccc(F)c2)c2ccccc2[nH]c1=O [997-71, (E)-3-[3-(4-chlorophenyl)acryloyl]-4-(3-fluorophenyl)quinolin-2(1H)-one] | NE (NE indicates less than 50% inhibition at 30 μM.) | NE (NE indicates less than 50% inhibition at 30 μM.) | NE (NE indicates less than 50% inhibition at 30 μM.) | NE (NE indicates less than 50% inhibition at 30 μM.) | inactive
O=C(O)CCC(=O)N1N=C(c2ccccc2-c2ccc(Cl)cc2)CC1c1cccc2c1OCO2 (stereo not shown) [997-122, 4-(5-(benzo[d][1,3]dioxol-4-yl)-3-(4′-chloro-[1,1′-biphenyl]-2-yl)-4,5-dihydro-1H-pyrazol-1-yl)-4-oxobutanoic acid] | NE (NE indicates less than 50% inhibition at 30 μM.) | NE (NE indicates less than 50% inhibition at 30 μM.) | NE (NE indicates less than 50% inhibition at 30 μM.) | NE (NE indicates less than 50% inhibition at 30 μM.) | inactive
Cc1c(C2=NN(C(=O)CCC(=O)O)C(c3ccc(Cl)cc3)C2)c(=O)[nH]c2ccccc12 (stereo not shown) [997-76, 4-(5-(4-chlorophenyl)-3-(4-methyl-2-oxo-1,2-dihydroquinolin-3-yl)-4,5-dihydro-1H-pyrazol-1-yl)-4-oxobutanoic acid] | NE (NE indicates less than 50% inhibition at 30 μM.) | NE (NE indicates less than 50% inhibition at 30 μM.) | NE (NE indicates less than 50% inhibition at 30 μM.) | NE (NE indicates less than 50% inhibition at 30 μM.) | inactive
